{
  "source": "patent US7511026B2",
  "about": "“Therapeutic agent for nerve damage” (Seikagaku Corporation, priority 2003, dated 2009)",
  "type_in_all_cases": "in vivo, Wister rats",
  "key": {"[1]": {"test_system": "spinal cord injury, seriously injured model (II)", "experiment": "Spinal cord evoked potential (SCEP), seriously injured model (II)", "settings": "HA4 6.0 μg/animal/day, vs physiological saline-administered group, p<0.05", "method": "(§1) Wister rats (SPF, male) were used as animals, and each body was shaved from the neck to the hip using an electric hair clipper under pentobarbital (50 mg/kg weight) anesthesia and cleaned with 70% ethanol and Isodine (manufactured by Meiji Seika Kaisha, Ltd.). The dorsal skin was incised to expose thoracic vertebra from T5 to T10, and hemilaminectomy of the sixth thoracic vertebra (T6 thoracic vertebra) was performed to make a small incision in the dura mater, followed by regional anesthesia with xylocaine (manufactured by Astra Zeneca). […] A respirator was used only when spinal cord evoked potentials were measured. […]\n(§2) 7 days after the spinal cord injury, the spinal cord evoked potentials were determined. […] Then, the spinal cord evoked potential (SCEP) was measured, and the “mean±SD” was calculated. The resultant potentials were evaluated using the amplitude of the first potential as an indicator. […]"}, "[2]": {"test_system": "spinal cord injury, slightly injured model", "experiment": "Spinal cord evoked potential (SCEP), slightly injured model", "settings": "HA4 60 μg/animal/day, 7 days after injury", "method": "as §1, §2"}, "[3]": {"test_system": "spinal cord injury, severely injured model (II)", "experiment": "Balance beam and metal gauze crossing tests, severely injured model (II)", "settings": "7 days after spinal cord injury, mean of four crossings, P<0.0001 vs physiological saline-administered group", "method": "Wister rats (SPF, male) were used as animals, and each body was shaved from the neck to the hip using an electric hair clipper under pentobarbital (50 mg/kg weight) anesthesia and cleaned with 70% ethanol and Isodine (manufactured by Meiji Seika Kaisha, Ltd.). The dorsal skin was incised to expose thoracic vertebra from T5 to T10, and hemilaminectomy of the sixth thoracic vertebra (T6 thoracic vertebra) was performed to make a small incision in the dura mater, followed by regional anesthesia with xylocaine (manufactured by Astra Zeneca). Subsequently, two models were prepared as follows: a spatula (the tip of which had been processed into 0.3 mm) was inserted to the T6 position from the dorsal until the tip reached the abdominal centrum and maintained for 10 minutes to injure the spinal cord (slightly injured model), while a tweezer (the tip of which had been processed into 0.3 mm) was inserted until the tip reached the abdominal centrum, and the portion was pinched from both sides for 10 seconds to injure the spinal cord (seriously injured model). A respirator was used only when spinal cord evoked potentials were measured. […] Then, the numbers of slips in the hind limb were recorded, and evaluated by the mean value (FIG. 12). As for the sham surgery group prepared by making a small incision in the dura mater (Sham), the number of slips in the hind limb was also determined."}, "[4]": {"test_system": "spinal cord injury, slightly injured model", "experiment": "Histopathologic evaluation of injured spinal cord (Kluver-Barrera staining), slightly injured model", "method": "Wister rats (SPF, male) were used as animals, and each body was shaved from the neck to the hip using an electric hair clipper under pentobarbital (50 mg/kg weight) anesthesia and cleaned with 70% ethanol and Isodine (manufactured by Meiji Seika Kaisha, Ltd.). The dorsal skin was incised to expose thoracic vertebra from T5 to T10, and hemilaminectomy of the sixth thoracic vertebra (T6 thoracic vertebra) was performed to make a small incision in the dura mater, followed by regional anesthesia with xylocaine (manufactured by Astra Zeneca). Subsequently, two models were prepared as follows: a spatula (the tip of which had been processed into 0.3 mm) was inserted to the T6 position from the dorsal until the tip reached the abdominal centrum and maintained for 10 minutes to injure the spinal cord (slightly injured model), while a tweezer (the tip of which had been processed into 0.3 mm) was inserted until the tip reached the abdominal centrum, and the portion was pinched from both sides for 10 seconds to injure the spinal cord (seriously injured model). A respirator was used only when spinal cord evoked potentials were measured. The respirator was inserted into the windpipe under 1.0 to 2.0% halothane anesthesia and stabilized with a muscle relaxant. After the injury, HA4 (6 μl) was immediately administered using a microsyringe (25 μl; manufactured by Ito Seisakusyo Co., Ltd.) into the dura mater. Thereafter, the tip (OD: 0.3 mm) of a tube that was filled with HA4 and connected with an osmotic pump (model 1002, manufactured by Alzet) was placed under the dura mater of the rostral in the injured portion, and HA4 was continuously administered for 7 days. Meanwhile, 5 minutes, 2 hours, 4 hours, and 6 hours after the injury, 30 mg/kg of methylprednisolone sodium succinate (MPSS, manufactured by Pharmacia) was administered into the tail vein as a positive control. For separating the injured portion from the surrounding tissues, a gelatin sponge (Gelform; manufactured by Pharmacia) was placed, and the rat was brought back to a feeding gauge after the wound had been sewn. […]"}, "[5]": {"test_system": "spinal cord injury model", "experiment": "Evaluation on performance status (walking) after spinal cord injury", "settings": "7 days after the administration; PBS-administered group showed difficulty in walking", "method": "Wister rats (SPF, male) were used as animals, and each body was shaved from the neck to the hip using an electric hair clipper under pentobarbital (50 mg/kg weight) anesthesia and cleaned with 70% ethanol and Isodine (manufactured by Meiji Seika Kaisha, Ltd.). The dorsal skin was incised to expose thoracic vertebra from T5 to T10, and hemilaminectomy of the sixth thoracic vertebra (T6 thoracic vertebra) was performed to make a small incision in the dura mater, followed by regional anesthesia with xylocaine (manufactured by Astra Zeneca). Subsequently, two models were prepared as follows: a spatula (the tip of which had been processed into 0.3 mm) was inserted to the T6 position from the dorsal until the tip reached the abdominal centrum and maintained for 10 minutes to injure the spinal cord (slightly injured model), while a tweezer (the tip of which had been processed into 0.3 mm) was inserted until the tip reached the abdominal centrum, and the portion was pinched from both sides for 10 seconds to injure the spinal cord (seriously injured model). A respirator was used only when spinal cord evoked potentials were measured. The respirator was inserted into the windpipe under 1.0 to 2.0% halothane anesthesia and stabilized with a muscle relaxant. […]"}, "[6]": {"test_system": "spinal cord injury, severely injured model (II)", "experiment": "Hind limb motor function test (BBB scale), severely injured model (II)", "settings": "HA4 6 μg/day, over 1 to 7 days after the spinal cord injury, P<0.0001 vs physiological saline-administered group", "method": "Wister rats (SPF, male) were used as animals, and each body was shaved from the neck to the hip using an electric hair clipper under pentobarbital (50 mg/kg weight) anesthesia and cleaned with 70% ethanol and Isodine (manufactured by Meiji Seika Kaisha, Ltd.). The dorsal skin was incised to expose thoracic vertebra from T5 to T10, and hemilaminectomy of the sixth thoracic vertebra (T6 thoracic vertebra) was performed to make a small incision in the dura mater, followed by regional anesthesia with xylocaine (manufactured by Astra Zeneca). Subsequently, two models were prepared as follows: a spatula (the tip of which had been processed into 0.3 mm) was inserted to the T6 position from the dorsal until the tip reached the abdominal centrum and maintained for 10 minutes to injure the spinal cord (slightly injured model), while a tweezer (the tip of which had been processed into 0.3 mm) was inserted until the tip reached the abdominal centrum, and the portion was pinched from both sides for 10 seconds to injure the spinal cord (seriously injured model). A respirator was used only when spinal cord evoked potentials were measured. […] According to the method described by Basso et al., two test examiners individually evaluated blindly using the Basso-Beeattie-Bresnahan (BBB) scale, and the mean values were defined as the final score (FIG. 13)."}, "[7]": {"test_system": "spinal cord injury, seriously injured model (I)", "experiment": "Spinal cord evoked potential (SCEP), seriously injured model (I)", "settings": "for SCEP amplitude (first potential): 7 days after injury, vs PBS-administered group", "method": "Wister rats (SPF, male) were used as animals, and each body was shaved from the neck to the hip using an electric hair clipper under pentobarbital (50 mg/kg weight) anesthesia and cleaned with 70% ethanol and Isodine (manufactured by Meiji Seika Kaisha, Ltd.). The dorsal skin was incised to expose thoracic vertebra from T5 to T10, and hemilaminectomy of the sixth thoracic vertebra (T6 thoracic vertebra) was performed to make a small incision in the dura mater, followed by regional anesthesia with xylocaine (manufactured by Astra Zeneca). Subsequently, two models were prepared as follows: a spatula (the tip of which had been processed into 0.3 mm) was inserted to the T6 position from the dorsal until the tip reached the abdominal centrum and maintained for 10 minutes to injure the spinal cord (slightly injured model), while a tweezer (the tip of which had been processed into 0.3 mm) was inserted until the tip reached the abdominal centrum, and the portion was pinched from both sides for 10 seconds to injure the spinal cord (seriously injured model). A respirator was used only when spinal cord evoked potentials were measured. The respirator was inserted into the windpipe under 1.0 to 2.0% halothane anesthesia and stabilized with a muscle relaxant.\nAfter the injury, HA4 (6 μl) was immediately administered using a microsyringe (25 μl; manufactured by Ito Seisakusyo Co., Ltd.) into the dura mater. Thereafter, the tip (OD: 0.3 mm) of a tube that was filled with HA4 and connected with an osmotic pump (model 1002, manufactured by Alzet) was placed under the dura mater of the rostral in the injured portion, and HA4 was continuously administered for 7 days. […]\nas §2"}},
  "data": [
    {"smiles": "CC(=O)N[C@H]1[C@H](O[C@H]2[C@H](O)[C@@H](O)[C@H](O[C@H]3[C@H](O)[C@@H](CO)OC(O)[C@@H]3NC(C)=O)O[C@@H]2C(=O)O)O[C@H](CO)[C@@H](O)[C@@H]1O[C@@H]1O[C@H](C(=O)O)[C@@H](O)[C@H](O)[C@H]1O", "note": "(stereo partly shown) [HA4, GlcA-GlcNAc-GlcA-GlcNAc]", "values": [
      {"measurement": "SCEP amplitude", "setting": "[1]", "result": "significantly recovered"},
      {"measurement": "SCEP amplitude level relative to normal (no injury-no treatment group)", "setting": "[2]", "result": "the same as the normal level"},
      {"measurement": "SCEP amplitude (first potential)", "setting": "[2]; intradural, continuous 7 days, vs PBS-administered group, p<0.05", "result": "decrease of SCEP amplitude was significantly attenuated or the SCEP amplitude was recovered"},
      {"measurement": "number of slips in the hind limb, balance beam crossing", "setting": "[3]", "result": "significantly low"},
      {"measurement": "number of slips in the hind limb, metal gauze crossing", "setting": "[3]", "result": "significantly low"},
      {"measurement": "number of axons crossing from white matter to gray matter", "setting": "[4]; 5 mm range in the rostral/caudal direction in the injured site, vs physiological saline-administered group", "result": "significantly larger"},
      {"measurement": "tissue injury, edema and myelin loss in white matter", "setting": "[4]; Kluver-Barrera staining, PBS group showed edema and myelin loss 1 cm or more from the injured site", "result": "the tissue injury was present only near the injured site, and edema and myelin loss were rarely observed in white matter"},
      {"measurement": "injured area (damaged area)", "setting": "[4]; coronal plane including the central canal, vs PBS-administered group", "result": "significantly smaller"},
      {"measurement": "performance status (walking)", "setting": "[5]", "result": "walking approximately similar to that of the normal rat was observed"},
      {"measurement": "motor function in the hind limb (BBB scale)", "setting": "[6]", "result": "significantly recovered"},
      {"measurement": "SCEP amplitude (first potential)", "setting": "[7]; HA4 0.6 μg/animal/day, p<0.05", "result": "decrease of the SCEP amplitude was significantly attenuated or the SCEP amplitude was recovered"},
      {"measurement": "SCEP effect compared with MPSS", "setting": "[7]; HA4 6 μg/animal/day vs MPSS 30 mg/kg x 4 times, tail vein", "result": "stronger effect than that of MPSS"},
      {"measurement": "SCEP amplitude (first potential)", "setting": "[7]; HA4 6 μg/animal/day, p<0.001, same level as the normal level", "result": "decrease of the SCEP amplitude was significantly attenuated or the SCEP amplitude was recovered"}
    ]}
  ]
}
